Values of other authors, collected in US5008416A, “Organogermanium compound, process for the preparation of same as well as use thereof” (Sanwa Kagaku Kenkyusho Co., Ltd., priority 1989, dated 1991).

Columns and labels:
[1] = Jap. Pat. No. Sho 61-151123(A), U.S. Pat. No. 4,889,715, EP 0186505; cited from earlier work
[2] = Cancer Res., Vol. 42, page 2852 (1982); cited from earlier work

Row | Compound | Immunomodulating activity (result in words) [1] | Anti-cancer or antitumor activity (result in words) [2]
1 | 3-oxygermylpropionic acid polymer | shows an excellent immunomodulating activity | 
2 | C[CH2][Ge]1([CH2]C)[CH2]CC2(CCN(CCCN(C)C)C2)C[CH2]1 [Spirogermanium] |  | shows an anti-cancer or antitumor activity
